Assay results from ChEMBL document CHEMBL1128779, “Synthesis of a fluorescent labeled thromboxane A2 receptor antagonist” (Bioorg Med Chem Lett, 1995).
pKd: −log10 of the molar value.

Biological target: T1, Thromboxane A2 receptor (Homo sapiens, UniProt P21731)
T1 sequence (P21731 whole entry): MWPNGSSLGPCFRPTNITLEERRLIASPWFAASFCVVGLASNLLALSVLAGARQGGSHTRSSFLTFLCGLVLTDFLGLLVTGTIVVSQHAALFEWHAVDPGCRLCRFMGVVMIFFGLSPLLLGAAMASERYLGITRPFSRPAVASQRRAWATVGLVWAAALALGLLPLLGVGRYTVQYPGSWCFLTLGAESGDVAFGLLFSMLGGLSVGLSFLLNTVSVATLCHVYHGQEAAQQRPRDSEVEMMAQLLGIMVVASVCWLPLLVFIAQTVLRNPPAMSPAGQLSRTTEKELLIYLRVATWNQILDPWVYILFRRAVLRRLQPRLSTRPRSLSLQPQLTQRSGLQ
Test: Binding affinity of Thromboxane A2 (TXA2) receptor using [3H]-SQ 29,548 radioligand in washed human platelets

Structure (SMILES)	pKd
CC1(C)C2CC[C@@H](Cc3cccc4ccc(=O)oc34)C1C2 (some centres not stated)	6.37
CC1(C)C2CC[C@H](Cc3cccc4ccc(=O)oc34)C1C2 (some centres not stated)	6.86
